Measured values from PMC11813143, “HBV polymerase recruits the phosphatase PP1 to dephosphorylate HBc-Ser170 to complete encapsidation” (PLOS Pathogens, 2025).
Where no end group is shown, it is not given here.

Tested on: C-S170 Ab
Assay: ELISA binding of immobilized HBc CTD peptides to C-S170 Ab
Parameters: species or system rabbit
Details: Fig 1C; for O.D. Mean: mean of n = 2
Procedure: To quantify the binding specificity of C-S170 Ab with non-phosphorylated HBc-Ser170, a flat-bottomed 96-well plate was coated with 100 ng of various peptides, including the non-phosphorylated and phosphorylated peptides covering Ser150, Ser162 and Ser170, and then the C-S170 Ab was added to the wells. For the competition of various peptides to C-S170 Ab, the 96-well plate was coated with 100 ng of non-phosphorylated HBc-Ser170 peptide and then a preincubated mixture containing 100 ng of peptide and the C-S170 Ab was added to the wells. After incubation with rabbit IgG conjugated with HRP, TMB substrate and a stop solution were added. The absorbance at a wavelength of 450 nm (A450) with a reference wavelength of 650 nm was measured using a microplate reader. GraphPad Prism 5 software was used to generate bar graphs and calculate Kd values, binding percentages, and inhibition percentages.

PRRRRSQSPRRRR [Ser170]
O.D. Mean ([Ab] 0.0001 ng/mL): 0.008
O.D. ([Ab] 0.0001 ng/mL, replicate 1): 0.008
O.D. ([Ab] 0.0001 ng/mL, replicate 2): 0.008
O.D. Mean ([Ab] 0.001 ng/mL): 0.032
O.D. ([Ab] 0.001 ng/mL, replicate 1): 0.034
O.D. ([Ab] 0.001 ng/mL, replicate 2): 0.03
O.D. Mean ([Ab] 0.01 ng/mL): 0.271
O.D. ([Ab] 0.01 ng/mL, replicate 1): 0.255
O.D. ([Ab] 0.01 ng/mL, replicate 2): 0.288
O.D. Mean ([Ab] 0.1 ng/mL): 1.801
O.D. ([Ab] 0.1 ng/mL, replicate 1): 1.753
O.D. ([Ab] 0.1 ng/mL, replicate 2): 1.85
